Data on 13 compounds can be found in patent US20140163026A1, “8-ETHYL-6-(ARYL)PYRIDO[2,3-D]PYRIMIDIN-7(8H)-ONES FOR THE TREATMENT OF NERVOUS SYSTEM DISORDERS AND CANCER” (Afraxis Holdings, Inc., priority 2011, published 2014).

For experiment [1], the system named is NF2−/− mesothelioma cells (NCI-H226). The experiment can be described thus: Growth inhibition of NF2 deficient cells (CellTiter-Glo). It counts as cell-based. The conditions noted are these: 0 μM-30 μM, 72 hours, FIG. 7. On the procedure: (§1) NF2 deficient cell lines were cultured in the appropriate medium. Once enough cells have propagated, plates of all adherent lines were seeded at 5,000-10,000 cells/well (depending on cell line) in a total volume of 50 μL, and plates of all suspension lines at 10,000-20,000 cells/well (depending on cell line) in a total volume of 50 μL. Plates were placed in a humidified cell culture incubator overnight to allow adherent cells to attach.
(§2) 10 mM stocks of each PAK inhibitor compound in DMSO were prepared. Dilutions were performed with media to provide 1% DMSO 2× stock solutions of each PAK inhibitor compound.
(§3) 50 μL of all PAK inhibitor compound 2× stocks were added to appropriate wells already containing 50 μL of cells and medium to expose cells to the final concentrations of compounds required. 50 μL of media was added to media and cell control wells and 50 μL of mix to vehicle control wells. At the same time as drug exposure, a CTG (CellTiter-Glo Assay) assay was performed on the 0 hr plate to obtain a 0 hr count. Cells were exposed to PAK inhibitor compounds or a DMSO control for 72 hours. Following the 72 hour exposure period, all remaining plates were assayed using CTG.
(§4) At the end of the 72 hour exposure period, plates were removed for a CTG assay from 37° C., 5% CO2 incubator and place on the bench at room temperature for 30 mins. 100 μL CTG reagent was added to each well, mixed for 2 minutes, followed by a further 10 minute incubation at room temperature. Luminescence for each well was determined.
(§5) Growth inhibition percent was calculated using the following equation: (Growth %=(Sample Value−T0Ave)/(Max−T0Ave)*100).
NF2^−/− mesothelioma cells (e.g., NCI-H226 cells) were treated with varying concentrations of a PAK inhibitor compound disclosed in Examples 33, 84, or 122.

The test system of another experiment is Nf2−/− SC4 cells. The description is as above. It counts as cell-based, mouse. As to conditions: 1 uM concentration for 72 hours, FIG. 4. The method, then:
as §1, §2
50 μL of all PAK inhibitor compound 2× stocks were added to appropriate wells already containing 50 μL of cells and medium to expose cells to the final concentrations of compounds required. 50 μL of media was added to media and cell control wells and 50 μL of mix to vehicle control wells. At the same time as drug exposure, a CTG (CellTiter-Glo Assay) assay was performed on the 0 hr plate to obtain a 0 hr count. […]
At the end of the 72 hour exposure period, plates were removed for a CTG assay from 37° C., 5% CO2 incubator and place on the bench at room temperature for 30 mins. […] Luminescence for each well was determined.
Growth inhibition percent was calculated using the following equation: (Growth %=(Sample Value−T0Ave)/(Max−T0Ave)*100). […]

The subject of a further experiment is NCI-H520 cells. The experiment can be described thus: Growth inhibition of PAK1 amplified NSCLC cells (CellTiter-Glo). It counts as cell-based. The conditions noted are these: 0 μM-30 μM, 72 hours, FIG. 9. On the procedure:
(§6) The PAK1 amplified cell lines were cultured in the appropriate medium. Once enough cells have propagated, plates of all adherent lines were seeded at 5,000-10,000 cells/well (depending on cell line) in a total volume of 50 μL, and plates of all suspension lines at 10,000-20,000 cells/well (depending on cell line) in a total volume of 50 μL. Plates were placed in a humidified cell culture incubator overnight to allow adherent cells to attach.
as §2
(§7) 50 μL of media was added to media and cell control wells and 50 μL of mix to vehicle control wells. At the same time as drug exposure, a CTG (CellTiter-Glo Assay) assay was performed on the 0 hr plate to obtain a 0 hr count. Cells were exposed to PAK inhibitor compounds or a DMSO control for 72 hours. Following the 72 hour exposure period, all remaining plates were assayed using CTG.
as §4, §5
(In general: ATP-based viability assays read luminescence as a measure of living cells.)

A further experiment has as its system EBC-1 cells. The experiment is described as above. It counts as cell-based. The conditions noted are these: 0 μM-30 μM, 72 hours, FIG. 8. The method, then: as §6, §2, §7, §4, §5
For the next experiment, the system named is SK-MES-1 cells. The description is as above. It counts as cell-based. The conditions noted are these: 0 μM-30 μM, 72 hours, FIG. 10. The method, then:
as §6, §2, §7, §4, §5

In a further experiment the test system is NF2−/− Schwannoma cells. The experiment can be described thus: Growth inhibition of NF2 deficient cells (CellTiter-Glo). As to conditions: 1 uM concentration, FIG. 6. It counts as cell-based. On the procedure: as §1, §2, §3, §4, §5
NF2^−/− Schwannoma cells were treated with a DMSO control or a PAK inhibitor compound (1 uM concentration) disclosed in Examples 101, 122, or 190.

Experiment [2] relates to Nf2−/− SC4 cells transplanted into the sciatic nerve sheath of NOD/SCID mice. The experiment can be described thus: Orthotopic NF2 deficient schwannoma mouse model, tumor weight. It counts as in vivo. The conditions noted are these: intraneural Nf2−/− cells, FIG. 5. An excerpt: The NF2 protein is absent in ˜100% of sporadic schwannomas. Thus, an NF2 deficient-schwanoma mouse model was generated and used to evaluate treatment of sporadic schwannomas with a PAK inhibitor compound disclosed herein.
Murine Nf2^−/− cells may be generated by various means. For example, NF2^−/− cells may be generated by administering an shRNA or siRNA targeting an Nf2 gene, thereby disrupting the Nf2 gene. In another example, NF2^−/− cells may be generated by using a Cre recombinase.
Nf2^−/− SC4 cells may be generated by using a Cre recombinase. Pure populations of embryonic SC4 cells were isolated from Nf 2^loxP/loxP− mice at about embryonic day 13.5. […]
Nf2^−/− cells (e.g., Nf2^−/− SC4 control cells) were transduced by lentiviruses carrying pLuc-mCherry and sorted by FACS. […] Tumor progression was monitored weekly by bioluminescence imaging (BLI) according to the manufacturer's instructions on an IVIS-200 system. The mice were sacrificed and the tumors from the vehicle control treated and PAK inhibitor treated mice were measured.
NF2^−/− cells (e.g., Nf2^−/− SC4 control cells) were transduced by lentiviruses carrying pLuc-mCherry and sorted by FACS. […] Tumor progression was monitored weekly by bioluminescence imaging (BLI) according to the manufacturer's instructions on an IVIS-200 system. […]
At various time points, treatment efficacy was determined. […]

In another experiment the target is PAK2 (PAK65) (Homo sapiens, UniProt Q13177). The experiment can be described thus: In vitro PAK inhibition assay (SelectScreen, Ser/Thr 20 peptide). It counts as biochemical. In short, it runs like this: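 FRET-based peptide cleavage assay: 0.29-6 ng PAK2 and 2 μM Ser/Thr 20 peptide in 50 mM HEPES pH 7.5, 10 mM MgCl2, 1 mM EGTA, 0.01% BRIJ-35, 1% DMSO final. Kinase reaction 60 min at room temperature, then 60 min development; 10-point 3-fold titrations, percent phosphorylation from fluorescence.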

The next experiment addresses PAK4 (Homo sapiens, UniProt O96013). Described as above. It counts as biochemical. In short, it runs like this: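 FRET-based Ser/Thr 20 peptide phosphorylation: 0.1-0.75 ng PAK4, 2 μM peptide in 50 mM HEPES pH 7.5, 10 mM MgCl2, 1 mM EGTA, 0.01% BRIJ-35, 1% DMSO; 60 min at room temperature, then 60 min protease development. 10-point 3-fold titrations; IC50 from sigmoidal fit.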

A further experiment concerns the target PAK1 (Homo sapiens, UniProt Q13153). The experiment can be described thus: In vitro PAK inhibition assay (SelectScreen, Ser/Thr 19 peptide). It counts as biochemical. In short, it runs like this: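 Kinase reaction ran in 50 mM HEPES pH 7.5, 0.01% BRIJ-35, 10 mM MgCl2, 1 mM EGTA with Ser/Thr 19 peptide for 60 min at room temperature, followed by 60 min protease development. Fluorescence gave percent phosphorylation. Compounds were tested as 10-point, 3-fold titrations in 1% DMSO final.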

Another experiment addresses PAK3 (Homo sapiens, UniProt O75914). The experiment can be described thus: In vitro PAK inhibition assay (SelectScreen, Ser/Thr 20 peptide). It counts as biochemical. In short, it runs like this:
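PAK3 phosphorylation of Ser/Thr 20 peptide in 50 mM HEPES pH 7.5, 0.01% BRIJ-35, 10 mM MgCl2, 1 mM EGTA, 1% DMSO final; 60 min at room temperature, then 60 min development reaction with fluorescence read-out. 10-point 3-fold titrations; percent phosphorylation from 0% and 100% phosphopeptide controls.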

PAK2 (PAK65), sequence (Q13177 whole entry): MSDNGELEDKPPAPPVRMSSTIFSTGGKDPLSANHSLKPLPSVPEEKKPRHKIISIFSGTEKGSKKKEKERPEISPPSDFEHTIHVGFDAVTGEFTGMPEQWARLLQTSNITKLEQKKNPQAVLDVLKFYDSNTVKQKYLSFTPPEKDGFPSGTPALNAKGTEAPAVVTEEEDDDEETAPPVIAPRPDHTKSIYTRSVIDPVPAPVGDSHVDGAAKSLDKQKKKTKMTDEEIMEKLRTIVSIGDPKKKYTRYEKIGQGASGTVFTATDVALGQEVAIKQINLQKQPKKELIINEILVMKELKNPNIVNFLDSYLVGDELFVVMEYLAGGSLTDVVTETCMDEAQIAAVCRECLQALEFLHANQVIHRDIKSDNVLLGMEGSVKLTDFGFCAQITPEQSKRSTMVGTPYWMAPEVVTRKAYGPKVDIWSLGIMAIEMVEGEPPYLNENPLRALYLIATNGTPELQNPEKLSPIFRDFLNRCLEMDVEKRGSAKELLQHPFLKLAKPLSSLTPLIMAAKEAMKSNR
PAK1, sequence (Q13153 whole entry): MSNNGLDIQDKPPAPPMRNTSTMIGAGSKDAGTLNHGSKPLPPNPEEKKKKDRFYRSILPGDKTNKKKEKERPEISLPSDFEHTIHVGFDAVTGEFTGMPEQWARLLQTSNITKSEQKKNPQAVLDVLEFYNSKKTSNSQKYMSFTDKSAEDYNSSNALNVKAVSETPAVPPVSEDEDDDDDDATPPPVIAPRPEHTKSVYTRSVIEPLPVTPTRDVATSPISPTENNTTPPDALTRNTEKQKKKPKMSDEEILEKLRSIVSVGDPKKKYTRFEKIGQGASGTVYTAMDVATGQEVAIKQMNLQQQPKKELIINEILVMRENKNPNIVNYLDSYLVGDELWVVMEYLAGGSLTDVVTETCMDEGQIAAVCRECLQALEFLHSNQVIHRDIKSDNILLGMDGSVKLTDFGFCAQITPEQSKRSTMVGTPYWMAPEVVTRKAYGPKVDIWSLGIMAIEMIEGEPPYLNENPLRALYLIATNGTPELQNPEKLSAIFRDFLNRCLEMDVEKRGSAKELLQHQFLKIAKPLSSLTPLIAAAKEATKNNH
PAK4, sequence (O96013 whole entry): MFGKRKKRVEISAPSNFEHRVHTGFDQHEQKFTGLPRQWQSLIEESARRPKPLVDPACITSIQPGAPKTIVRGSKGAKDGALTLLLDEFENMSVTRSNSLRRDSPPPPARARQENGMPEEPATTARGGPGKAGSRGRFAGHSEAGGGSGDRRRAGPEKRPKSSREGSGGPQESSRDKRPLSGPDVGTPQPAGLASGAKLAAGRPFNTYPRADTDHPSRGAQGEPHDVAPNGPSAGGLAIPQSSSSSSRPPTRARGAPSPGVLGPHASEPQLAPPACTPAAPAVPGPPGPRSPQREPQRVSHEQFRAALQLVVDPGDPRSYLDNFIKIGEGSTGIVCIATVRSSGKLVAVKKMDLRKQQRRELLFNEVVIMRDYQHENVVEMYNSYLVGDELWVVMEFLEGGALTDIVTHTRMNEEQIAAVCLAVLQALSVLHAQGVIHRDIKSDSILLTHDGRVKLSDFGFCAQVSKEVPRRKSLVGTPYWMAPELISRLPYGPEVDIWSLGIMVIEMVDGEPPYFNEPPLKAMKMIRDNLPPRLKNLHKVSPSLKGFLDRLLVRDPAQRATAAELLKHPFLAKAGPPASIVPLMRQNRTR
PAK3, sequence (O75914 whole entry): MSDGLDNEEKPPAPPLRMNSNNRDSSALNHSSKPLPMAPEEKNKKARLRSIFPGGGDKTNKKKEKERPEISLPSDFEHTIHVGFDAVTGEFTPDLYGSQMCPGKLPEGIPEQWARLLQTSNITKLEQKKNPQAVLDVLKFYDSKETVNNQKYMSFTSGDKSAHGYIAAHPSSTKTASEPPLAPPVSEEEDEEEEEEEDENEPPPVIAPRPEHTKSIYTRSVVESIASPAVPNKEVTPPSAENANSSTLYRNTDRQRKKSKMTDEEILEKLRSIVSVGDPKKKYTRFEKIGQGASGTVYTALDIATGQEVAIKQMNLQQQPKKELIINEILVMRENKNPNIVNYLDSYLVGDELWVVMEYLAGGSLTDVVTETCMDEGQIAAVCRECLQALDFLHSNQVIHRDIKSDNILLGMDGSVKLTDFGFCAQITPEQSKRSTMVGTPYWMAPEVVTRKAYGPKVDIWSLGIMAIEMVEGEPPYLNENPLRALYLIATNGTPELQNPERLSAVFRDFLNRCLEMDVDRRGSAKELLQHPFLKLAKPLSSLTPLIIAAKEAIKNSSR

For the compound `CCn1c(=O)c(-c2ccc(-c3cccnc3F)cc2Cl)cc2cnc(Nc3ccc(N4CCN(C)CC4)cc3)nc21` [Example 33], the “growth (%) with increasing concentration” value is on record as “the growth (%) of the cells reduced” in experiment [1], “the growth (%) decreased” with NCI-H520 cells, “the growth (%) decreased” in the experiment with EBC-1 cells and “the growth (%) decreased” in the experiment with SK-MES-1 cells. Further, in the experiment with Nf2−/− SC4 cells, the “cell number compared to DMSO control treated cells” value is listed as “reduction in cell number”.

For `CCn1c(=O)c(-c2ccc(-c3noc(C)n3)cc2Cl)cc2cnc(Nc3ccc(C4CCN(C)CC4)cc3)nc21` [Example 122], the “growth (%) with increasing concentration” value in experiment [1] is listed as “the growth (%) of the cells reduced”; with NCI-H520 cells it was “the growth (%) decreased”; in the experiment on EBC-1 cells, “the growth (%) decreased”; in the experiment on SK-MES-1 cells, “the growth (%) decreased”. In addition, in the experiment with NF2−/− Schwannoma cells, the “cell number compared to DMSO control treated cells” value is given as “reduction in cell number”.

Take `CCn1c(=O)c(-c2ccc(-c3cncc(C)n3)cc2Cl)cc2cnc(Nc3ccc(C4CCN(C)CC4)cc3)nc21` [Example 190]: in the experiment with NF2−/− Schwannoma cells, the “cell number compared to DMSO control treated cells” value is “reduction in cell number”.

`CCn1c(=O)c(-c2ccc(-c3cncs3)cc2Cl)cc2cnc(Nc3ccc(N4CCN(C)CC4)cc3)nc21` [Example 84]: the “growth (%) with increasing concentration” value in [1] was “the growth (%) of the cells reduced”. Besides, the “cell number compared to DMSO control treated cells” value with Nf2−/− SC4 cells is on record as “reduction in cell number”. In experiment [2], the “average tumor weight versus vehicle control treated mice” value is on record as “less than the average tumor weight of the vehicle control treated mice”.

Consider `CCn1c(=O)c(-c2ccc(-c3cnc(C)s3)cc2Cl)cc2cnc(Nc3ccc(C4CCN(C)CC4)cc3)nc21` [Example 101], for which the “cell number compared to DMSO control treated cells” value in the experiment with NF2−/− Schwannoma cells is “reduction in cell number”.

In general, IC50 refers to the concentration needed to halve the response being measured. Turning to `CCn1c(=O)c(-c2ccc(-c3cncnc3)cc2Cl)cc2cnc(Nc3ccc(N4CCN(C(C)C)CC4)cc3)nc21`, the IC50 against PAK2 (PAK65) was under 50 nM; against PAK4 it was 500 to 5000 nM; against PAK1, under 50 nM; against PAK3, under 50 nM.

With `CCn1c(=O)c(-c2ccc(-c3cncnc3)cc2Cl)cc2cnc(Nc3ccc(C4CNCCO4)cc3)nc21` (centres unmarked), the IC50 at PAK2 (PAK65) is under 50 nM; against PAK4, 500 to 5000 nM; on PAK1, under 50 nM; against PAK3, under 50 nM.

For the compound `CCn1c(=O)c(-c2ccc(-c3cccnc3)cc2Cl)cc2cnc(Nc3ccc(N4CCN(C)CC4)cc3)nc21`, the IC50 at PAK2 (PAK65) is under 50 nM; at PAK4 it was 500 to 5000 nM; against PAK1 it was under 50 nM; on PAK3, under 50 nM.

In the case of `CCn1c(=O)c(-c2ccc(-c3ccc(C)nc3F)cc2Cl)cc2cnc(Nc3ccc(C4CCNCC4)c(F)c3)nc21`, the IC50 against PAK2 (PAK65) was 50 to 500 nM; on PAK4, 500 to 5000 nM; at PAK1 it was 50 to 500 nM; against PAK3, 50 to 500 nM.

As for `CCn1c(=O)c(-c2ccc(-c3ccc(F)nc3C)cc2Cl)cc2cnc(Nc3ccc(C4CCNCC4)cc3)nc21`, the IC50 was 50 to 500 nM on PAK2 (PAK65), at least 5000 nM against PAK4, under 50 nM at PAK1 and 50 to 500 nM against PAK3.

With `CCn1c(=O)c(-c2ccc(-c3ccsc3)cc2)cc2cnc(Nc3ccc(N4CCN(C)CC4)cc3)nc21`, the IC50 at PAK2 (PAK65) is 500 to 5000 nM; at PAK4, at least 5000 nM; against PAK1 it was 50 to 500 nM; at PAK3, 50 to 500 nM.

As for `Cc1ncccc1-c1cc(Cl)c(-c2cc3cnc(Nc4ccc(C5CCN(C)CC5)cc4)nc3n(C)c2=O)cc1F`, the IC50 against PAK2 (PAK65) is 50 to 500 nM; against PAK4, at least 5000 nM; against PAK1 it was 50 to 500 nM; at PAK3, 500 to 5000 nM.

On to `CCn1c(=O)c(-c2ccc(-c3nccnc3C)cc2Cl)cc2cnc(Nc3ccccc3)nc21`, for which the half-inhibitory concentration (IC50) is 50 to 500 nM on PAK2 (PAK65), at least 5000 nM on PAK4, 50 to 500 nM on PAK1 and 50 to 500 nM against PAK3.
